Laboratory results from patent US9351983B2, “Use of glycerophosphoinositols for the treatment of septic shock” (CONSIGLIO NAZIONALE DELLE RICERCHE, priority 2012, dated 2016).

Legend:
Assay type in all cases: cell-based, human
[1] = test system: LPS-induced tissue-factor gene expression; test: Real-time RT-PCR of tissue factor mRNA in LPS-stimulated monocytes; settings: 300 μM, 0.1 μg/ml LPS for 24 h (chronic)
Experimental: FIG. 3—The glycerophosphoinositols inhibit LPS-induced tissue-factor gene expression. Freshly isolated human monocytes were incubated at 37° C. for 20 min without or with 300 μM GroPIns or GroPIns4P, and for a further 1.5 h or 24 h in the absence and presence of 0.1 μg/ml LPS. At each time point, the total RNA was extracted from cells by the thiocyanate/caesium chloride method and converted to cDNA. Real-time PCR measurements of tissue factor were performed using validated primers. GAPDH served as the house-keeping gene. Each sample was measured in triplicate and the data were calculated with the delta-delta method (2-DDCT) for comparing relative expression data. Monocytes incubated alone for different times were considered the control sample. Measurements of mRNA levels were expressed as fold-increase over control, and are means (±SD) of triplicates from one experiment that is representative of 4 experiments performed with cells from different donors (*p=0.016; **p=0.0052). […]
(§1) One μg total RNA (extracted through thiocyanate/caesium chloride method) was converted to cDNA using Moloney murine leukaemia virus reverse transcriptase (Applied Biosystems, Italy). […] Each sample was measured in triplicate and the data were analysed with the SDS 2.0 software (Applied Biosystems, Italy) by the delta-delta method (2-DDCT) for comparing relative expression results. […]

p38 = test: Western blotting of phosphorylated p38 in LPS-stimulated monocytes; settings: 300 μM, 0.1 μg/ml LPS for 1 h
Experimental: Monocytes from healthy donors were incubated at 37° C. for 20 min without or with 300 μM GroPIns or GroPIns4P, and for an additional 1 h in the absence and presence of 0.1 μg/ml LPS from E. coli. Resentative Western blots are shown, as resolved using 10% SDS-PAGE, showing phosphorylated (p-) and total levels of p38 and ERK1/2. All of the blots were representative of at least three independent experiments.
Protein extracts were analysed by Western blotting by the following procedures. The nitrocellulose filters containing the proteins of interest were incubated in the blocking solution for Western blotting plus 3% bovine serum albumin (BSA) or 5% milk powder (Fluka, Switzerland) for 1 h at room temperature, and then with the primary antibody diluted to its working concentration (see Table 2) in the blocking solution for Western blotting (plus BSA or milk powder). After a 2-4 h incubation at room temperature, or an overnight (O/N) incubation at 4° C., the antibody was removed and the strips were washed twice in Tween®/Tris-buffered salt solution (TTBS), for 15 min each. […] After washing the strips were incubated with the enhanced luminescence (ECL) reagents (Amersham Pharmacia Biotech, NJ, USA), according to the manufacturer instructions, and protein signals were detect by autoradiography using Kodak film.

[2] = test system: LPS-mediated gene transcription of COX-2; test: Real-time RT-PCR of COX-2 mRNA in LPS-stimulated monocytes; settings: 300 μM, 0.1 μg/ml LPS for 1.5 h or 24 h
Experimental: FIG. 4—The glycerophosphoinositols inhibit LPS-mediated gene transcription of TNFα, IL-1β and COX-2. Human monocytes were purified from peripheral blood and incubated at 37° C. for 20 min without or with 300 μM GroPIns or GroPIns4P, and for an additional 1.5 h or 24 h in the absence and presence of 0.1 μg/ml LPS from E. coli. At each time point, RNA was extracted and converted to cDNA for real-time PCR analysis of TNFα, IL-1β and COX-2. Each sample was measured in triplicate and the data were calculated using the delta-delta method (2-DDCT). Transcription of the house-keeping gene GAPDH was used to normalise the data. Measurements of mRNA levels were expressed as fold-increase over the respective control (unstimulated) cells, and are means (±SD) of triplicates from one representative experiment of 4 experiments performed with cells from different donors. Asterisks indicate statistically significant differences (*p<0.0485; **p<0.0092).
as §1

Structure (SMILES) | inhibition of LPS-induced tissue factor mRNA levels [1] | phosphorylation level of p38 (p38) | effect on LPS-induced COX-2 mRNA expression [2]
O=P(O)(O)OC1[C@@H](O)[C@H](O)C(OP(=O)(O)OCC(O)CO)[C@@H](O)[C@H]1O (stereo partly drawn) [GroPIns4P, glycerophosphoinositol 4-phosphate] | completely ineffective | did not affect the phosphorylation levels | inhibited the effects of LPS on expression of all of the genes analysed
O=P(O)(OCC(O)CO)OC1C(O)C(O)C(O)C(O)C1O (stereo not drawn) [GroPIns, glycerophosphoinositol] | ~60% | did not affect the phosphorylation levels | inhibited the effects of LPS on expression of all of the genes analysed
